Consider two molecules from publication PMC5764437, “Discovery of novel, orally bioavailable, antileishmanial compounds using phenotypic screening” (PLoS Neglected Tropical Diseases, 2017).

Data set [1] can be described thus: Stability in simulated gastric fluid. As to conditions: simulated gastric fluid with pepsin, pH 1. As to the method:
Compound stocks were 10 mM in DMSO. The internal standard was 5 µM warfarin in methanol. […] 1 ml SGF was added to a 1.1 ml 96-well storage plate and mixed well with 10 µl compound stock. The plate was then incubated at 37 °C and shaken at 60 rpm. […] At each time point, 100 µl was removed to a 1 ml storage plate and 300 µl internal standard was added to quench the reaction. […] The compound was detected by SIR and quantification was based on peak area of test compound and the internal standard.

For another data set, the system named is L. mexicana. Put plainly: Efficacy in murine model of cutaneous leishmaniasis (footpad lesion size). The format is in vivo. As to conditions: BALB/c mice infected with L. mexicana, measured weeks 4–12. As to the method: Female BALB/c mice (~20 g) were injected in one hind footpad with 1 x 10^6 stationary phase promastigotes suspended in 25 μl of phosphate buffered saline (PBS). Four weeks after infection, when a small cutaneous lesion was visible in the injected footpad, cohorts of five mice were treated with either compound or vehicle alone (90 μl), delivered daily for 10 consecutive days by oral gavage using a 20-gauge x 30 mm disposable plastic feeding needle. Vehicle consisted of 10/10/40/39 mixture of ethanol/(PG)/PEG400/PBS plus 1% (weight/volume) 2HβCD (PG is propylene glycol, PEG is polyethylene glycol, 2HβCD is 2-hydroxy-β-cyclodextran). The daily dose for each compound was: compound 4, 25 mg/kg; compound 5, 30 mg/kg; miltefosine, 20 mg/kg. The width of the footpad (top to bottom) was measured with calipers before injection of parasites (day 0) and weekly from weeks 4–12. The width of the uninfected contralateral footpad was also measured each week, and its width was subtracted from that of the infected footpad to determine lesion size.

The nature of data set [2]: Dose-ranging tolerability / 10-day toxicity study in mice. The format is in vivo, mouse. As to the method: Drug doses were chosen based on pilot toxicology and pharmacokinetic studies. Female BALB/C mice (compound 4) or C57BL6 (compound 5) of 17–21 grams were purchased from Charles River Laboratories (Wilmington, MA). Food and water were provided ad libitum. Two mice were used as control and another 5 mice were dosed daily via oral gavage (25 mg/kg with compound 4 and 50 mg/kg with compound 5). Every day blood was collected by retro-orbital bleed from one animal from the treatment group for pharmacokinetics. […] Each mouse received two blood collections and glucose measurements over the 10-day course of treatment.

For data set [3], the system named is L. donovani intracellular amastigotes. Description: Growth inhibition of intracellular amastigotes in J774A.1 macrophages (Renilla luciferase luminescence). Type of data set: cell-based. Particulars: Leishmania donovani, J774.A1; intracellular amastigotes in J774A.1 macrophages; mean ± standard deviation, n = 2; read-out: L. donovani EC50. As to the method: L. mexicana (MNYZ/BZ/62/M379) or L. donovani (LdBob strain) parasites expressing the Renilla luciferase gene from a rRNA gene locus were used to infect J774A.1 macrophages. Growth of intracellular amastigotes was measured using a luminescence assay, as detailed previously. The growth inhibitor activities of compounds were tested against bloodstream form Lister 427 T. brucei in 96-well plates containing 1 X 10^5 parasites per well in 0.2 ml HMI-11 medium (Gibco/Thermo Fisher). Compounds (2 μl volumes in DMSO) were added to the parasites using serial 3-fold dilutions to cover a range of concentrations from about 10 μM to 1 nM. After 48 h incubation at 37°C under a humidified 5% CO2 atmosphere, 10 μl of 10% Triton X-100 and 100 X stock SYBR Green I (Sigma-Aldrich) in PBS was added and florescence measured (excitation 497 nm; emission 520 nm) after 1 h incubation in the dark using a Spectra Max Gemini XPS fluorimeter (Molecular Devices). Data were log transformed and EC50 values were determined using GraphPad Prism 6 (GraphPad Software). In the absence of growth inhibiting compounds, the parasites grew from an initial density of 5 X 10^5 cells/mL to ~3 X 10^6 cells/mL.

Data set [4] can be described thus: Solubility in aqueous buffer. The format is physicochemical. Particulars: citrate phosphate buffered saline, pH 7.4, aqueous buffer, kinetic from dmso stock. As to the method: Solubility assays were carried out on a Biomek FX lab automation workstation (Beckman Coulter, Inc., Fullerton, CA) using μSOL Evolution software (pION Inc.). Compound stock (10 mM in DMSO, 10 μL) was added to 1-propanol (190 μL) to make a reference stock plate. Reference stock solution (5 μL) was mixed with 1-propanol (70 μL) and citrate phosphate buffered saline (pH 7, 75 μL) to make the reference plate which was then measured with UV detection. Test compound stock (10 mM, 6 μL) was added to citrate phosphate buffered saline (594 μL) in a 96-well storage plate and mixed. […] The suspension was then filtered through a 96-well filter plate (pION Inc.). Filtrate (75 μL) was mixed with 1-propanol (75 μL) to make the sample plate, and the UV spectrum (250 nm −500 nm) of the sample plate was recorded. Calculation of solubility was carried out using μSOL Evolution software based on the AUC of the UV spectrum of the sample plate and the reference plate. All compounds were tested in triplicate.

Data set [5] can be described thus: Caco-2 permeability assay. As to conditions: human, pH 7.4; for Papp A→B at 2 h, 10 μmol/L / Papp B→A at 2 h, 10 μmol/L: Caco-2, mean ± standard deviation of three runs; for Papp A→B at 2 h, 10 μmol/L: read-out: Caco-2 (A→B) permeability coefficient; for Papp B→A at 2 h, 10 μmol/L: read-out: Caco-2 (B→A) permeability coefficient. Type of data set: in vitro ADME. On the technique in general: Caco-2 cells form a polarised layer with tight junctions and transporters.

Data set [6] in a line: Liver microsomal stability, mouse. Particulars: female, liver microsomes, pH 7.4. As to the method:
One part of 10 mM DMSO compound stock was mixed with 4 parts of acetonitrile to make 2 mM diluted compound stock in DMSO and acetonitrile. 29.1 µL diluted compound stock was added to 2.3 mL liver microsomal solution and vortexed to make microsomal solution with compound. […] For the 0 h time point, 450 µL pre-cooled (4 °C) internal standard (10 µM warfarin in methanol) was added to the first three columns before the reaction was initiated. 1.25 ml of microsome assay solution A (Fisher Scientific, #NC9255727) was combined with 0.25 ml of solution B (Fisher Scientific, #NC9016235) in 3.5 ml of potassium phosphate buffer (0.1 M, pH 7.4). 45 µL of this A+B solution was added to each well of the 96-well storage plate (reaction plate). Liquid in the first 3 columns was moved to another storage plate (quenched plate). The reaction plate was then sealed, incubated at 37 °C, and shaken at a speed of 60 rpm. Time points (0.5 h, 1 h, 2 h) were taken. At each time point, 450 µL pre-cooled internal standard was added to 3 rows in the reaction plate, and the liquid was then transferred to the quenched plate. […] 200 µL supernatant was transferred to a 96-well plate and analyzed by ultra-performance liquid chromatography-mass spectrometry (UPLC-MS) (Waters Inc.). The compounds and internal standard were detected by selected ion recording (SIR).
In general terms: Microsomes from liver hold many membrane-bound enzymes, among them those of drug oxidation.

Where [7] appears, read: 50 mg/kg, 10-day toxicity study.

Structures are written as SMILES. Converted amounts (≈) assume the structure as drawn. “Also recorded” adds a separate entry of the source.

Usually half-life stands for the time in which the quantity being followed falls by half. The low end stands for fast loss, the high end for slow loss. In general, EC50 refers to the midpoint of the concentration-response curve. One may read the solubility as how much of the substance goes into solution per volume. A word on the efflux ratio: it is the permeability from basolateral to apical divided by that in the opposite direction, in the common usage. In data set [1], `Cc1ccc(-c2nc3ccccc3s2)cc1NC(=O)c1cc([N+](=O)[O-])c(N2CCN(C)CC2)cc1Cl` [Compound 5] registered a half-life at 99 µM of more than 24 h. Besides, in the data set with L. mexicana (30 mg/kg daily oral gavage for 10 days from week 4), the “Cutaneous lesion size (footpad width)” value was “controlled lesion size at dimensions similar to that at the time of compound dosing (4 weeks) until week 9”. Moreover, in data set [2] (setting [7]), the Food intake entry is on record as “reduced food intake” and the Weight loss result is “more than 10%”. The EC50 in data set [3] stood at 29 ± 27 nM. Besides, the solubility at 18 h in data set [4] was determined as 0.3 µM (≈ 0.157 µg/mL). Further, the efflux ratio at 2 h, 10 μmol/L in data set [5] (Caco-2, pH 7.4, Papp B→A / Papp A→B) was found to be 1.92. In data set [5], the Papp A→B at 2 h, 10 μmol/L is 16.8 ± 2.4 ×10⁻⁶ cm/s and the Papp B→A at 2 h, 10 μmol/L came to 32.2 ± 2.9 ×10⁻⁶ cm/s. The molecule also displayed a half-life at 20 μM in data set [6] of more than 4 h.
Molecule `COc1ccc(-c2c(C(F)(F)F)oc3c(CN4CCN(C)CC4)c(O)ccc3c2=O)cc1OC` [Compound 4] yielded a half-life at 99 µM in data set [1] of more than 48 h. Besides, the “Cutaneous lesion size (footpad width)” value in the data set on L. mexicana (25 mg/kg daily oral gavage for 10 days from week 4) was “controlled lesion size at dimensions similar to that at the time of compound dosing (4 weeks) until week 9”. The “Tolerability of daily oral administration” value in data set [2] (daily oral, 25 mg/kg) is “well-tolerated in all study animals; also recorded: No weight loss or other toxicity was observed”. For the same molecule, the Seizures entry in data set [2] (oral gavage, 25 mg/kg) is “no seizures were seen”. Also, the Glucose level entry in data set [2] (oral gavage, 25 mg/kg, at Cmax and Cmin) was “remained within normal limits”. Further, the “Seizures / seizure-like behavior” value in data set [2] (oral gavage, 50 mg/kg) is recorded as “half of the animals exhibited seizure-like behavior”. Also, in data set [2] (oral gavage, 50 mg/kg, untreated mice 185–251 mg/dl), the “Glucose level in plasma” value lay within 23 to 40 mg/dL. Besides, in data set [3], the EC50 is 600 ± 500 nM. Besides, the solubility at 18 h in data set [4] worked out at 67 µM (≈ 32.1 µg/mL). In data set [5], the Papp A→B at 2 h, 10 μmol/L was 49 ± 0.3 ×10⁻⁶ cm/s and the Papp B→A at 2 h, 10 μmol/L worked out at 39 ± 0.7 ×10⁻⁶ cm/s. This molecule came in with a half-life at 20 μM in data set [6] of more than 4 h.
